Measured values from patent US6762202B2, “Infrared thermography and methods of use” (NitroMed, Inc., priority 2000, dated 2004).

Key:
labial blood flow = assay: Laser doppler measurement of labial/clitoral blood flow after topical administration; assay type: in vivo, Female white New Zealand rabbits; conditions: 5% or 10%, 50 μL topical in MIGLYOL; laser doppler probe; FIG. 6
Description: Female white New Zealand rabbits were anaesthetized with Ketamine/Xylazine mixture and placed in supine position. A laser doppler probe (LASERFLO, BPM 403, Vasamedics, Inc., Minn.) was placed at the labium surface, and after steady baseline blood flow was maintained and recorded for at least 10 minutes, Example 5 (5%, 50 μL), 10% of Example 7 (10%, 50 μL), or vehicle alone (50 μL, MIGLYOL®) was applied to the surface of the labia and clitoris. […] The time course for the increase in blood flow (FIG. 6) was very similar to the time course for the increase in labial clitoral temperature (FIG. 5).

labia and clitoris = assay: Infrared thermographic measurement of labial/clitoral temperature after topical administration; assay type: in vivo, Female white New Zealand rabbits; conditions: for temperature of the labia and clitoris following the application: 50 μL
Description: Female white New Zealand rabbits were anaesthetized with pentobarbitol sodium and placed in a supine position on a warming pad. The warming pad was connected to a temperature control unit to maintain the core (rectal) temperature to 38° C. The labia and clitoris were exposed and kept in position by taping the surrounding skin to the nearby abdominal area. The infrared camera (THERMACAM® SC 1000, Inframetrics Inc., North Billerica, Mass.) was focused on the labia and clitoris and the animal was covered with a chamber to maintain the heat loss due to air movement.
After a steady baseline temperature was maintained and recorded for at least 10 minutes the compound (50 μL) was applied to the surface of the labia and clitoris using a syringe and 27 G needle. The compound was formulated in a mixture of dimethyl sulfoxide (25%) and poly(ethylene glycols) (75%). The poly(ethylene glycols) was a mixture of poly(ethylene glycol) 1450 and poly(ethylene glycol) 400 in a ratio of 1:9 respectively.
The images from the infrared camera were electronically transferred to a PC computer and analyzed using TherMonitor 95, version 1.61 (Thermoteknix System Ltd., Mount pleasant,Cambridge, U. K.). Various color scales in the visible wave length are used to depict the temperature change of the recorded images.

N[C@@H](CCC(=O)N[C@@H](CSN=O)C(=O)NCC(=O)O)C(=O)O [Example 7, N-(N-L-y-glutamyl-S-Nitroso-L-cysteinyl)glycine]
duration of sustained increase in labial blood flow (labial blood flow): > 60 min
increase in labial blood flow as compared to the baseline (labial blood flow): 4 fold
change of labial clitoral temperature (labia and clitoris; 2.5%, 50 μL topical in MIGLYOL, FIG. 5): slight and transient increase
increase of temperature of the labia and clitoris (labia and clitoris; 5%, 50 μL topical in MIGLYOL, FIG. 5): 3.5 °C
increase of temperature of the labia and clitoris (labia and clitoris; 10%, 50 μL topical in MIGLYOL, FIG. 5): 5.5 °C

CC(C)CON=O [isobutyl nitrite, reference compound]
temperature of the labia and clitoris following the application (labia and clitoris; 10% topical, ~30° C. prior to application, FIG. 1, vehicle gave no increase): 32 °C
temperature of the labia and clitoris following the application (labia and clitoris; 20% topical, ~31° C. prior to application, FIG. 2, vehicle gave no increase): 34 °C

CC(C)(SN=O)C1COC(=O)N1 (centres unmarked) [Example 2, 4-(1-Methyl-1-(nitrosothio)ethyl)-1,3-oxazolidin-2-one]
melting point: 65 °C
temperature of the labia and clitoris following the application (labia and clitoris; 10% topical, ~32° C. prior to application, FIG. 4): 36 °C

CC(C)(CN1C(=O)C2C3C=CC(C3)C2C1=O)SN=O (centres unmarked) [Example 1, 4-Aza-4-(2-methyl-2-(nitrosothio)propyl)tricyclo(5.2.1.0<2,6>)dec-8-ene-3,5-dione]
temperature of the labia and clitoris following the application (labia and clitoris; 5% topical, ~32° C. prior to application, FIG. 3, vehicle gave no increase): 35 °C

CNC[C@H](O)c1cccc(O)c1 [phenylephrine, reference compound]
temperature after addition of the vasoconstrictor (decrease) (labia and clitoris; 10% applied 60 minutes after Example 2 (10%), monitored for 5 minutes, decrease from 36° C., FIG. 4): 32 °C
